# Data as given in ChEMBL document CHEMBL2169870, “A novel aminopeptidase N inhibitor developed by virtual screening approach” (Bioorg Med Chem Lett, 2012).
# Calls of active or inactive are those of the source. The rule behind the calls is not given here.
# Assays:
# Aminopeptidase N = target: T1, Aminopeptidase N (Sus scrofa, UniProt P15145); experiment: Inhibition of porcine kidney microsome aminopeptidase using L-Leu-p-nitroanilide as substrate after 30 mins
# T1 sequence (P15145 whole entry): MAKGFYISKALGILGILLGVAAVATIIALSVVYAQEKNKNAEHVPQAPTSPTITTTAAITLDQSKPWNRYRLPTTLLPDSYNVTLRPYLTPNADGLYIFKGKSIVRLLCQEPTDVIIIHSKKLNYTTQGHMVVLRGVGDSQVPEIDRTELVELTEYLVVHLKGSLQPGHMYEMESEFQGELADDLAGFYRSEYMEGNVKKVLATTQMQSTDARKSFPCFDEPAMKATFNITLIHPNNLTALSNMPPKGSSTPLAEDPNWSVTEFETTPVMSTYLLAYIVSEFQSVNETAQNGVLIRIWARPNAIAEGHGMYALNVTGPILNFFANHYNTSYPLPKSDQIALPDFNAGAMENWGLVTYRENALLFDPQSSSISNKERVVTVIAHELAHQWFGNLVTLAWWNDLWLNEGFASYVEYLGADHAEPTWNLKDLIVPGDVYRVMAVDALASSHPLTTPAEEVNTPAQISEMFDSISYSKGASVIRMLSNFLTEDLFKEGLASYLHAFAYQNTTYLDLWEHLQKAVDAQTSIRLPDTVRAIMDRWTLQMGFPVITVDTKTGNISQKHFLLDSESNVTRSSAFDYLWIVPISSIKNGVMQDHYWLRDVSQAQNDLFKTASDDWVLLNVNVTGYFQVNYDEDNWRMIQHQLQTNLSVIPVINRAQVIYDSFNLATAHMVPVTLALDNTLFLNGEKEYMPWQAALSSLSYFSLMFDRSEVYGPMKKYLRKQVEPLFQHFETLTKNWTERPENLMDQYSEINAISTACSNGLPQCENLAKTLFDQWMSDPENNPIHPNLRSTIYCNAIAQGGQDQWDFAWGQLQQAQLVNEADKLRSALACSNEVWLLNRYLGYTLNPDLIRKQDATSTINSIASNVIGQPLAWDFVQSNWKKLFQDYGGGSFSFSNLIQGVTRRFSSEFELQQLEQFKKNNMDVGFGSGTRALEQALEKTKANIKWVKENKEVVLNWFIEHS
# SK-OV-3 [1] = experiment: Cytotoxicity against human SKOV3 cells after 48 hrs by MTT assay
# NIH3T3 = experiment: Cytotoxicity against mouse NIH/3T3 cells after 48 hrs by MTT assay; assay type: cell-based
# MDA-MB-231 [2] = experiment: Cell cycle arrest in human MDA-MB-231 cells assessed as accumulation at G2 phase at 20 uM after 48 hrs using propidium iodide staining by flow cytometry (reference value: 18.35%); assay type: functional
# MDA-MB-231 [3] = experiment: Cell cycle arrest in human MDA-MB-231 cells assessed as accumulation at S phase at 20 uM after 48 hrs using propidium iodide staining by flow cytometry (reference value: 33.25%); assay type: functional
# HeLa [4] = experiment: Cytotoxicity against human HeLa cells after 48 hrs by MTT assay
# ES2 = experiment: Cytotoxicity against human ES2 cells after 48 hrs by MTT assay
# MDA-MB-231 [5] = experiment: Induction of apoptosis in human MDA-MB-231 cells assessed as early apoptotic cells at 20 uM after 24 hrs using annexin-V-FITC staining by flow cytometry (reference value: 1.69%); assay type: functional
# MDA-MB-231 [6] = experiment: Induction of apoptosis in human MDA-MB-231 cells assessed as late apoptotic cells at 20 uM after 24 hrs using annexin-V-FITC staining by flow cytometry (reference value: 1.69%); assay type: functional
# MCF7 [7] = experiment: Cytotoxicity against human MCF7 cells after 48 hrs by MTT assay
# NB-4 [8] = experiment: Cytotoxicity against human NB4 cells after 48 hrs by MTT assay
# MDA-MB-231 [9] = experiment: Cell cycle arrest in human MDA-MB-231 cells assessed as accumulation at G1 phase at 20 uM after 48 hrs using propidium iodide staining by flow cytometry (reference value: 48.40%); assay type: functional
# MDA-MB-231 [10] = experiment: Antimetastatic activity in human MDA-MB-231 cells assessed as inhibition of cell invasion at 20 uM after 20 hrs by matrigel assay; assay type: functional, cell-based
# HL-60 [11] = experiment: Cytotoxicity against human HL60 cells after 48 hrs by MTT assay
# NB-4 [12] = experiment: Cytotoxicity against human NB4 cells after 48 hrs by MTT assay; conditions: NB-4, 48 h
# K562 = experiment: Cytotoxicity against human K562 cells after 48 hrs by MTT assay; conditions: K562, 48 h
# MDA-MB-231 [13] = experiment: Induction of apoptosis in human MDA-MB-231 cells assessed as late apoptotic cells at 300 uM after 24 hrs using annexin-V-FITC staining by flow cytometry (reference value: 1.69%); assay type: functional
# SK-OV-3 [14] = experiment: Cytotoxicity against human SKOV3 cells after 48 hrs by MTT assay; conditions: SK-OV-3, 48 h
# MDA-MB-231 [15] = experiment: Cell cycle arrest in human MDA-MB-231 cells assessed as accumulation at S phase at 300 uM after 48 hrs using propidium iodide staining by flow cytometry (reference value: 33.25%); assay type: functional
# [16] = Cytotoxicity against human ES2 cells after 48 hrs by MTT assay; conditions: ES-2, 48 h
# HeLa [17] = experiment: Cytotoxicity against human HeLa cells after 48 hrs by MTT assay
# HL-60 [18] = experiment: Cytotoxicity against human HL60 cells after 48 hrs by MTT assay; conditions: HL-60, 48 h
# MDA-MB-231 [19] = experiment: Cell cycle arrest in human MDA-MB-231 cells assessed as accumulation at G1 phase at 300 uM after 48 hrs using propidium iodide staining by flow cytometry (reference value: 48.40%); assay type: functional
# MCF7 [20] = experiment: Cytotoxicity against human MCF7 cells after 48 hrs by MTT assay; conditions: MCF7, 48 h
# MDA-MB-231 [21] = experiment: Cytotoxicity against human MDA-MB-231 cells after 48 hrs by MTT assay; conditions: MDA-MB-231, 48 h
# MDA-MB-231 [22] = experiment: Induction of apoptosis in human MDA-MB-231 cells assessed as early apoptotic cells at 300 uM after 24 hrs using annexin-V-FITC staining by flow cytometry (reference value: 1.69%); assay type: functional
# MDA-MB-231 [23] = experiment: Antimetastatic activity in human MDA-MB-231 cells assessed as inhibition of cell invasion at 300 uM after 20 hrs by matrigel assay; assay type: functional, cell-based
# PC-3 = experiment: Cytotoxicity against human PC3 cells after 48 hrs by MTT assay; conditions: PC-3, 48 h
# MDA-MB-231 [24] = experiment: Cell cycle arrest in human MDA-MB-231 cells assessed as accumulation at G2 phase at 300 uM after 48 hrs using propidium iodide staining by flow cytometry (reference value: 18.35%); assay type: functional
# HCT-116 = experiment: Cytotoxicity against human HCT116 cells after 48 hrs by MTT assay; conditions: HCT-116, 48 h
# A549 = experiment: Cytotoxicity against human A549 cells after 48 hrs by MTT assay; conditions: A549, 48 h
smiles,measurement,setting,value
NC(=S)NNC(=O)c1ccccc1C(=O)O,IC50,Aminopeptidase N,> 1000 µM
O=C1Nc2ccccc2/C1=C1/SC(=S)N(NC(=O)c2cccc(O)c2)C1=O,IC50,Aminopeptidase N,170 µM
NNC(=O)/C(=C/c1ccc([N+](=O)[O-])cc1)NC(=O)c1ccc(Br)cc1,IC50,Aminopeptidase N,438 µM
O=C1NC(=O)C(=NNc2cccc(C(=O)O)c2)C(=O)N1,IC50,Aminopeptidase N,> 1000 µM
COc1cc(/C=C2/C(=O)NC(=O)N(Cc3ccc(F)cc3)C2=O)cc(OC)c1O,IC50,Aminopeptidase N,78.9 µM
Cc1cc(/C=N/Nc2ccc([N+](=O)[O-])cc2[N+](=O)[O-])c(C)n1-c1ccc(S(N)(=O)=O)cc1,IC50,Aminopeptidase N,> 1000 µM
Nn1c(COc2ccccc2)n[nH]c1=S,IC50,Aminopeptidase N,424 µM
O=C(CN1C(=O)C2(OCCO2)c2cc(Br)ccc21)NO,Activity,SK-OV-3 [1],Dose-dependent effect
same,Activity,"NIH3T3; mouse, nih3t3, 48 h",Dose-dependent effect
same,Activity,MDA-MB-231 [2],3.83%
same,Activity,MDA-MB-231 [3],2.9%
same,Activity,HeLa [4],Dose-dependent effect
same,Activity,ES2,Dose-dependent effect
same,Activity,MDA-MB-231 [5],4.99%
same,Activity,MDA-MB-231 [6],5.35%
same,Activity,MCF7 [7],Dose-dependent effect
same,Activity,NB-4 [8],Dose-dependent effect
same,Activity,MDA-MB-231 [9],93.27%
same,Activity,MDA-MB-231 [10],Active
same,Activity,HL-60 [11],Dose-dependent effect
O=C(O)COc1ccc(/C=N/n2c(COc3ccccc3)nc3ccccc3c2=O)cc1,IC50,Aminopeptidase N,188 µM
NC(=O)c1ccccc1NC(=O)c1ccccc1C(=O)O,IC50,Aminopeptidase N,66.3 µM
Cc1[nH]cnc1/C=N/NC(N)=S,IC50,Aminopeptidase N,> 1000 µM
NS(=O)(=O)c1ccc(-n2cccc2/C=C2/C(=O)NN(c3ccc(Cl)cc3)C2=O)cc1,IC50,Aminopeptidase N,> 1000 µM
CC[C@H](N)[C@H](O)c1ccc(OC)cc1,IC50,Aminopeptidase N,> 1000 µM
C=CCN/C(S)=N/C=C1C(=O)NC(=O)NC1=O,IC50,Aminopeptidase N,65.9 µM
CC(C)C[C@H](NC(=O)[C@@H](O)[C@H](N)Cc1ccccc1)C(=O)O [UBENIMEX],IC50,"NIH3T3; Mus musculus, NIH3T3, 48 h",> 1 mM
same,IC50,NB-4 [12],221 µM
same,IC50,K562,136 µM
same,Activity,MDA-MB-231 [13],2.14%
same,IC50,SK-OV-3 [14],> 1 mM
same,Activity,MDA-MB-231 [15],15.06%
same,IC50,[16],74.5 µM
same,IC50,HeLa [17],155 µM
same,IC50,HL-60 [18],86.4 µM
same,Activity,MDA-MB-231 [19],77.91%
same,IC50,MCF7 [20],> 1 mM
same,IC50,MDA-MB-231 [21],50.6 µM
same,Activity,MDA-MB-231 [22],8.54%
same,Activity,MDA-MB-231 [23],Active
same,IC50,PC-3,399 µM
same,Activity,MDA-MB-231 [24],7.03%
same,IC50,HCT-116,> 1 mM
same,IC50,A549,513 µM
Nc1nc2c(ncn2S(=O)(=O)c2cccc(C(=O)O)c2)c(=O)[nH]1,IC50,Aminopeptidase N,202 µM
CCOC(=O)/C(N)=N/NS(=O)(=O)c1ccc(C)cc1,IC50,Aminopeptidase N,321 µM
O=C1NC(=O)C(=NNc2cc([N+](=O)[O-])ccc2O)C(=O)N1,IC50,Aminopeptidase N,> 1000 µM
CC(=O)NC(=S)NNC(=O)COc1ccc(Br)cc1,IC50,Aminopeptidase N,227 µM
